Laboratory results taken from patent US20230303564A1, “PYRIMIDINE RING COMPOUND” (MEDSHINE DISCOVERY INC., priority 2020, published 2023).

How the values were obtained:
Type in all cases: biochemical
CDK9/CyclinT1 = CDK9/CyclinT1 (Homo sapiens (Human), UniProt P50750); assay: CDK9/CyclinT1 enzyme activity test (ADP-Glo); conditions: 100 μM ATP, 25° C. 120 minutes, read-out: CDK 9/Cyclin T1 IC50
Experimental: CDK9/CyclinT1 Enzyme Reaction System
(§1) Enzymes, substrates, ATP, and inhibitors were diluted by kinase buffer in the kit. The compounds to be tested were diluted 5-fold with a multi-channel pipette to the eighth concentration, that is, from 50 μM to 0.65 nM, the concentration of DMSO was 5%, and a double-hole experiment was set up. 1 μL of each concentration gradient of inhibitors, 2 μL of CDK9/CyclinT1 enzyme (4 ng), 2 μL mixture of substrate and ATP (100 μM ATP, 0.2 μg/μL substrate) were added to the microplates, and the final concentration gradient of the compound was 10 μM to 0.13 nM. The reaction system was reacted at 25° C. for 120 minutes. After the reaction, 5 μL of ADP-Glo reagent was added to each well, the reaction was carried out at 25° C. for 40 minutes, after the reaction was completed, 10 μL of kinase detection reagent was added to each well, the reaction was carried out at 25° C. for 30 minutes, the multiple label analyzer was used to read the chemiluminescence with an integration time of 0.5 seconds.
(§2) The equation (Sample−Min)/(Max−Min)*100% was used to convert the raw data into inhibition rate, and the value of IC50 can be obtained by curve fitting with four parameters (obtained by log (inhibitor) vs. response-Variable slope mode in GraphPad Prism). The enzymatic inhibitory activity of the compounds of the present disclosure on CDK1/CyclinB1, CDK2/CyclinA2, CDK2/CyclinE1, CDK4/CyclinD1, CDK6/CyclinD1, CDK7/CyclinH/MAT1, CDK9/CyclinT1 was provided in Table 1.

CDK6/CyclinD1 = CDK6/CyclinD1 (Homo sapiens (Human), UniProt Q00534); assay: CDK6/CyclinD1 enzyme activity test (LANCE Ultra TR-FRET); conditions: 250 μM ATP, 25° C. 120 minutes, read-out: CDK6/Cyclin D1 IC50
CDK6/CyclinD1, sequence (Q00534 whole entry): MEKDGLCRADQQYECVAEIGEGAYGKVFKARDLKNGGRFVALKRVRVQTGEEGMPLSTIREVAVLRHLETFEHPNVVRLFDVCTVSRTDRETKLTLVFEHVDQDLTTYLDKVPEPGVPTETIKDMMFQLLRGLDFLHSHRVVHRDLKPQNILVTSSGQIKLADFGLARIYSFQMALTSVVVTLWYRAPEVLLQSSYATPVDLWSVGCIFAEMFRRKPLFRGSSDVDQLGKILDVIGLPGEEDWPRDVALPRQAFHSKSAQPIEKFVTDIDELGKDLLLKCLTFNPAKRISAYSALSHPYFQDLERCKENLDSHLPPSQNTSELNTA
CDK6/CyclinD1, sequence (P24385 whole entry partner): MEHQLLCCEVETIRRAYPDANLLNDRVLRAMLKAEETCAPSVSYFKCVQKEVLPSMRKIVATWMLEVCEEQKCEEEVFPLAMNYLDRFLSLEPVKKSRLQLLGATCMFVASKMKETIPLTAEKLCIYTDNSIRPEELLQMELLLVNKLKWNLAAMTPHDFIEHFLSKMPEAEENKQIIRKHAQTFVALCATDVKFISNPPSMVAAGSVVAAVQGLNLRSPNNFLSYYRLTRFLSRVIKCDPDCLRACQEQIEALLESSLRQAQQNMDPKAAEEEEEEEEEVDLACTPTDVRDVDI
Experimental: CDK6/CyclinD1 Enzyme Reaction System
(§3) Preparation of Kinase Buffer:
(§4) The composition of the buffer: 50 mM of hydroxyethylpiperazine ethanesulfonic acid solution at pH 7.5, 1 mM of ethylenediaminetetraacetic acid, 10 mM of magnesium chloride, 0.01% Brij-35, and 2 mM of dithiothreitol.
(§5) Enzymes, substrate LANCE Ultra ULight™-4E-BP-1(Thr37146) Peptide, ATP, and inhibitors were diluted by kinase buffer.
(§6) The compounds to be tested were diluted 5-fold with a multi-channel pipette to the eighth concentration, that is, from 40 μM to 0.512 nM, the concentration of DMSO was 4%, and a double-hole experiment was set up. […] The reaction system was reacted at 25° C. for 120 minutes. After the reaction, 5 μL mixture of EDTA and 2× LANCE™ Detection Buffer (1:1) were added to each well, the reaction was carried out at 25° C. for 5 minutes, after the reaction was completed, 5 μL of LANCE Ultra Eu-anti-P-4E-BP1(Thr37MS) (4 nM) was added to each well, the reaction was carried out at 25° C. for 60 minutes, the reaction signal was detected by Nivo instrument according to the principle of time-resolved fluorescence resonance energy transfer.
as §2

CDK7/CyclinH/MAT1 = CDK7/CyclinH/MAT1 (Homo sapiens (Human), UniProt P50613); assay: CDK7/CyclinH/MAT1 enzyme activity test (ADP-Glo); conditions: 10 μM ATP, 25° C. 120 minutes, read-out: CDK7/Cyclin H IC50
CDK7/CyclinH/MAT1, sequence (P50613 whole entry): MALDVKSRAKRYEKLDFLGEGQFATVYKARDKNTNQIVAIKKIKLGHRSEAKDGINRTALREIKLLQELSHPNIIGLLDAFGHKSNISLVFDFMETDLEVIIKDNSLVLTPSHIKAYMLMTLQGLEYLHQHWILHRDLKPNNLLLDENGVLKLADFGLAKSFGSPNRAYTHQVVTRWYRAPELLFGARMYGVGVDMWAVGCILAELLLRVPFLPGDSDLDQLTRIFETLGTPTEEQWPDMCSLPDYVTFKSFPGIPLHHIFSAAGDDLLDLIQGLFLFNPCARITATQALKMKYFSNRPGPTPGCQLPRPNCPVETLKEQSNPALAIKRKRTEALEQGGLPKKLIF
CDK7/CyclinH/MAT1, sequence (P51946 whole entry partner): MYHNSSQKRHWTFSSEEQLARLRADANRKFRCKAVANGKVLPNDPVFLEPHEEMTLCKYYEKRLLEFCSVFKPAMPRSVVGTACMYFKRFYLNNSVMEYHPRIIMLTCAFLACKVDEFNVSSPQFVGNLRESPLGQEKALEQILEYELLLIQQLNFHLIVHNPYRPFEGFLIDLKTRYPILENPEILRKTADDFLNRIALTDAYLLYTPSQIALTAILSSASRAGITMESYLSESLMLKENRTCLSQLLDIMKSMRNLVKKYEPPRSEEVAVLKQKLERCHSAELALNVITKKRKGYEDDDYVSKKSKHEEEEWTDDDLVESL
CDK7/CyclinH/MAT1, sequence (P51948 whole entry partner): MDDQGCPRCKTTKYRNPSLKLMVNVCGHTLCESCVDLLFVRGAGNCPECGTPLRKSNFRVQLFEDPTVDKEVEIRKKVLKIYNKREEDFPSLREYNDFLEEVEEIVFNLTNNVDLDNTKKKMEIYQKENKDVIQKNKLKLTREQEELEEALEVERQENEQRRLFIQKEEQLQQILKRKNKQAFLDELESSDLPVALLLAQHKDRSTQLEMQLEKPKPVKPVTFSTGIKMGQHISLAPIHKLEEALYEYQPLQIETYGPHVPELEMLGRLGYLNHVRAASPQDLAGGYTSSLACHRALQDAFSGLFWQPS
Experimental: CDK7/CyclinH/MAT1 Enzyme Reaction System
Enzymes, substrates (MBP), ATP, and inhibitors were diluted by kinase buffer in the kit. The compounds to be tested were diluted 5-fold with a multi-channel pipette to the eighth concentration, that is, from 50 μM to 0.65 nM, the concentration of DMSO was 5%, and a double-hole experiment was set up. 1 μL of each concentration gradient of inhibitors, 2 μL of CDK7/CyclinH/MAT1 enzyme (20 ng), 2 μL mixture of substrate and ATP (10 μM ATP, 0.1 μg/μL substrate) were added to the microplates, and the final concentration gradient of the compound was 10 μM to 0.13 nM. The reaction system was reacted at 25° C. for 120 minutes. After the reaction, 5 μL of ADP-Glo reagent was added to each well, the reaction was carried out at 25° C. for 40 minutes, after the reaction was completed, 10 μL of kinase detection reagent was added to each well, the reaction was carried out at 25° C. for 30 minutes, the multiple label analyzer was used to read the chemiluminescence with an integration time of 0.5 seconds.

CDK4/CyclinD1 = CDK4/CyclinD1 (Homo sapiens (Human), UniProt P11802); assay: CDK4/CyclinD1 enzyme activity test (LANCE Ultra TR-FRET); conditions: 350 μM ATP, 25° C. 120 minutes, read-out: CDK4/Cyclin D1 IC50
CDK4/CyclinD1, sequence (P11802 whole entry): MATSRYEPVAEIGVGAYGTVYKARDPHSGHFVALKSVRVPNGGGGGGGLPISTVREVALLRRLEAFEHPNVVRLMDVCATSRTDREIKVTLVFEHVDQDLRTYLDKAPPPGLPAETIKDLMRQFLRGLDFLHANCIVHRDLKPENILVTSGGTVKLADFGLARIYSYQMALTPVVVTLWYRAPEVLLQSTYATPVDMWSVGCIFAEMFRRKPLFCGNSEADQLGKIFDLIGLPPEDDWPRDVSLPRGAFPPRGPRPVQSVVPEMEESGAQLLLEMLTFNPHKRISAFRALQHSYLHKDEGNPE
CDK4/CyclinD1, sequence (P24385 whole entry partner): as the sequence (P24385 whole entry partner) above
Experimental: CDK4/CyclinD1 Enzyme Reaction System
as §3, §4, §5, §6, §2

CDK2/CyclinA2 = CDK2/CyclinA2 (Homo sapiens (Human), UniProt P24941); assay: CDK2/CyclinA2 enzyme activity test (ADP-Glo); conditions: 50 μM ATP, 25° C. 60 minutes, read-out: CDK2/Cyclin A2 IC50
Experimental: CDK2/CyclinA2 Enzyme Reaction System
as §1, with “CDK2/CyclinA2” for “CDK9/CyclinT1”, “(1.6” for “(4”, “(50” for “(100”, “0.1” for “0.2”, “60” for “120”, “seconds” for “seconds.”
as §2

CDK2/CyclinE1 = CDK2/CyclinE1 (Homo sapiens (Human), UniProt P24941); assay: CDK2/CyclinE1 enzyme activity test (ADP-Glo); conditions: 150 μM ATP, 25° C. 60 minutes, read-out: CDK2/Cyclin E1 IC50
Experimental: CDK2/CyclinE1 Enzyme Reaction System
as §1, with “CDK2/CyclinE1” for “CDK9/CyclinT1”, “(2” for “(4”, “(150” for “(100”, “0.1” for “0.2”, “60” for “120”
as §2

CDK1/CyclinB1 = CDK1/CyclinB1 (Homo sapiens (Human), UniProt P06493); assay: CDK1/CyclinB1 enzyme activity test (ADP-Glo); conditions: 25 μM ATP, 25° C. 120 minutes, read-out: CDK1/Cyclin B IC50
CDK1/CyclinB1, sequence (P06493 whole entry): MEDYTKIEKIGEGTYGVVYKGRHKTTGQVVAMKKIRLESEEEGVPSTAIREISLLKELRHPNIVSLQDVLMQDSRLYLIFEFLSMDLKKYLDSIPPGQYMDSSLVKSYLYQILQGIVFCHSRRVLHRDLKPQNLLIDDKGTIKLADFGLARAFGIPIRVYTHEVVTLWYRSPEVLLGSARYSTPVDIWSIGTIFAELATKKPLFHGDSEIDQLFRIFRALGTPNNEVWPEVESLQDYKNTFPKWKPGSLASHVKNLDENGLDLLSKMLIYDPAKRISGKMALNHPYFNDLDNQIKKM
CDK1/CyclinB1, sequence (P14635 whole entry partner): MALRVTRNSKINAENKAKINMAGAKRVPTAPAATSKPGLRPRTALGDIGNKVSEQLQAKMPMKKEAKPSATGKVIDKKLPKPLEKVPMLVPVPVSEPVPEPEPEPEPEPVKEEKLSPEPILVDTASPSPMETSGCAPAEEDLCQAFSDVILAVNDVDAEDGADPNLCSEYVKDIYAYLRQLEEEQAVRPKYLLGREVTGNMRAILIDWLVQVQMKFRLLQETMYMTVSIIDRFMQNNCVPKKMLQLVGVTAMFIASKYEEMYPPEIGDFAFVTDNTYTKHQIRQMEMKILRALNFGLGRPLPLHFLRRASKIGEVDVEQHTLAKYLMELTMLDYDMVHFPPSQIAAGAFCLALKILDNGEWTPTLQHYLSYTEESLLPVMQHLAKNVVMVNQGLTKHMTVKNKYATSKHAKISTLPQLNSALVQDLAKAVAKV
Experimental: CDK1/CyclinB1 Enzyme Reaction System
as §1, with “of CDK1/CyclinB1” for “of CDK9/CyclinT1”, “enzyme (12.5” for “enzyme (4”, “ATP (25” for “ATP (100”, “μM adenosine triphosphate,” for “μM ATP,”
as §2

CDK9/CyclinT1, sequence (P50750 whole entry): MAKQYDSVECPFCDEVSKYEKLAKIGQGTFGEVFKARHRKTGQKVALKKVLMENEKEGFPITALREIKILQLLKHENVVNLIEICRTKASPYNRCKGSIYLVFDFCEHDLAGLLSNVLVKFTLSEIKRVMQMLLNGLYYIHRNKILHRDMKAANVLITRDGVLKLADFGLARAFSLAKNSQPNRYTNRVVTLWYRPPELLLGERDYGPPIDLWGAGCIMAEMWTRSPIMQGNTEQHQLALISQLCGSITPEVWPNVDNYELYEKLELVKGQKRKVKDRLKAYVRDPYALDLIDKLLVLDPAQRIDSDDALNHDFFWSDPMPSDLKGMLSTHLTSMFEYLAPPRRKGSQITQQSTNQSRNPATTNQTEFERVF
CDK9/CyclinT1, sequence (O60563 whole entry partner): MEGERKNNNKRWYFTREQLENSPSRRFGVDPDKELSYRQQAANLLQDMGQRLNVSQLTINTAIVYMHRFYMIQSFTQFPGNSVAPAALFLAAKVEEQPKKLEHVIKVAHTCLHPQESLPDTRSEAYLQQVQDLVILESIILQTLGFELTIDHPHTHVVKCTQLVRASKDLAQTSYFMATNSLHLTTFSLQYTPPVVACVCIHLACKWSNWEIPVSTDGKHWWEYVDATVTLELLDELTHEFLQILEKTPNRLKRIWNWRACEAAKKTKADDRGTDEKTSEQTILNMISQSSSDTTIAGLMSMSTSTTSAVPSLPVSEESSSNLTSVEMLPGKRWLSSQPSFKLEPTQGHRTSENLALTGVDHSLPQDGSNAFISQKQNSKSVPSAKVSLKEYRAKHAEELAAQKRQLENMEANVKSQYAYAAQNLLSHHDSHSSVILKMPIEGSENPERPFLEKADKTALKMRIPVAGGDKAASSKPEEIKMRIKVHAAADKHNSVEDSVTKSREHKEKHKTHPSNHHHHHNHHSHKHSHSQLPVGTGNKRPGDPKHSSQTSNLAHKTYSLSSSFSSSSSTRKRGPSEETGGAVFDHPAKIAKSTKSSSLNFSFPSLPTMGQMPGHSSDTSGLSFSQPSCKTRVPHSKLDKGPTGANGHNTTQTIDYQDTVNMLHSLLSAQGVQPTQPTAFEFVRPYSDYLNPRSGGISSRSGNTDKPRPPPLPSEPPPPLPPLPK

IC50 (CDK9/CyclinT1): 89 nM | IC50 (CDK6/CyclinD1): 0.81 nM | IC50 (CDK7/CyclinH/MAT1): 41 nM | IC50 (CDK4/CyclinD1): 1.23 nM | IC50 (CDK2/CyclinA2): 0.73 nM | IC50 (CDK2/CyclinE1): 3.92 nM | IC50 (CDK1/CyclinB1): 6.77 nM
Structure (SMILES): Cc1cc2cnc(NC3CCN(S(C)(=O)=O)CC3)nc2c(N[C@@H]2CCC[C@@]2(C)O)n1 [Compound 8]
